Data published in patent publication US20100081679A1, “DIAMINOPYRIMIDINES AS FUNGICIDES” (Bayer CropScience AG, priority 2007, published 2010).
Marks after values point to notes of the source that are not given here.

Experiment: logP determination via retention times, calibrated with unbranched alkan-2-ones
Type: physicochemical
Details: HPLC on reversed-phase C 18, EEC Directive 79/831 Annex V.A8; method *: 40° C., 0.1% aqueous formic acid and acetonitrile, linear gradient 10% to 95% acetonitrile

| logP | SMILES |
| --- | --- |
| 2.64* | CCCOc1cccc(Nc2ncc(Cl)c(NC3CC3)n2)c1 [compound 531] |
| 2.70* | COc1cc(Nc2ncc(Br)c(NC3CC3)n2)ccc1Cl [compound 532] |

Continued, compound first:

| SMILES | logP |
| --- | --- |
| O=C1CCc2cc(Nc3ncc(Cl)c(NCC4CC4)n3)ccc2N1 [compound 517] | 1.19* |
| C=CC(=O)Nc1cccc(Nc2ncc(Br)c(NCC3CC3)n2)c1 [compound 482] | 1.66* |
| CN(C)S(=O)(=O)Oc1cccc(Nc2ncc(Br)c(NCC3CC3)n2)c1 [compound 485] | 2.51* |
| FC(F)Oc1ccc(Nc2ncc(Cl)c(NCC3CC3)n2)cc1 [compound 538] | 2.25* |
| CNC(=O)c1ccc(Nc2ncc(Cl)c(NCC3CC3)n2)cc1 [compound 510] | 1.44* |
| CN(C)C(=O)Nc1ccc(Nc2ncc(Cl)c(NCC3CC3)n2)cc1 [compound 548] | 1.49* |

Same assay, conditions: HPLC on reversed-phase C18, method **: 43° C.; mobile phase 0.1% aqueous phosphoric acid and acetonitrile; linear gradient 10% to 95% acetonitrile

| SMILES | logP |
| --- | --- |
| O=S(=O)(Cc1ccc(Nc2ncc(Cl)c(NC3CC3)n2)cc1)N1CCOCC1 [compound 314] | 1.57** |
| CC(C)NS(=O)(=O)Cc1cccc(Nc2ncc(Cl)c(NC3CC3)n2)c1 [compound 325] | 1.78** |

Same assay, conditions: HPLC on reversed-phase C18, method *: 40° C., 0.1% aqueous formic acid and acetonitrile, linear gradient 10% to 95% acetonitrile

| logP | SMILES |
| --- | --- |
| 3.73* | CC(C)(C)Sc1ccc(Nc2ncc(Cl)c(NC3CC3)n2)cc1 [compound 152] |
| 2.11* | CCC(C)c1ccccc1Nc1ncc(Cl)c(NC2CC2)n1 (stereo not shown) [compound 907] |
| 2.91* | Fc1ccc(F)c(Nc2ncc(Cl)c(NC3CC3)n2)c1 [compound 948] |

More lines, now with the values behind:

| SMILES | logP |
| --- | --- |
| CC(O)c1cccc(Nc2ncc(C(F)(F)F)c(NCC3CC3)n2)c1 (stereo not shown) [compound 705] | 2.16* |
| Oc1cccc(Nc2ncc(Cl)c(NCC3CC3)n2)c1 [compound 681] | 1.49* |
| Clc1cnc(Nc2cccc(-n3ccnc3)c2)nc1NC1CC1 [compound 720] | 0.91* |
| Oc1ccc(Nc2ncc(Br)c(NC3CC3)n2)cc1F [compound 764] | 1.41* |
| COC(=O)Nc1ccc(Nc2ncc(C#N)c(NC3CC3)n2)cc1 [compound 159] | 1.91* |
| CC(C)(C)NC(=O)c1ccc(Nc2ncc(Cl)c(NCC3CC3)n2)cc1 [compound 673] | 2.21* |
| CC(=O)CCc1cccc(Nc2ncc(Br)c(NC3CC3)n2)c1 [compound 967] | 1.83* |
| FC(F)c1cnc(Nc2ccccc2)nc1NC1CC1 [compound 722] | 1.56* |

Same assay, conditions: HPLC on reversed-phase C18, method *: 40° C.; mobile phase 0.1% aqueous formic acid and acetonitrile; linear gradient 10% to 95% acetonitrile

| SMILES | logP |
| --- | --- |
| CCOC(=O)C1(Nc2nc(Nc3cc(OC)c(OC)c(OC)c3)ncc2Cl)CC1 [compound 317] | 2.01* |
| Fc1ccccc1Nc1ncc(Cl)c(NC2CC2)n1 [compound 275] | 2.09* |
| COc1cccc(Nc2ncc(Cl)c(NC3CC3)n2)c1 [compound 283] | 1.8* |
| CC(=O)Nc1ccc(Nc2ncc(Br)c(NC3CC3)n2)cc1 [compound 348] | 1.31* |
| Fc1ccc(Nc2ncc(Cl)c(NC3CC3)n2)cc1F [compound 321] | 2.59* |
| CC(C)(C)OC(=O)Nc1cccc(Nc2ncc(Cl)c(NC3CC3)n2)c1 [compound 330] | 2.27* |
| COc1cc(Nc2ncc(Cl)c(NC3(c4ccccc4Cl)CC3)n2)cc(OC)c1OC [compound 320] | 3.06* |

Same assay, conditions: HPLC on reversed-phase C18 column (EEC Directive 79/831 Annex V.A8); method *: 40° C.; 0.1% aqueous formic acid and acetonitrile; linear gradient 10% to 95% acetonitrile

| logP | SMILES |
| --- | --- |
| 1.88* | COc1cc(Nc2ncc(Br)c(NCC3CC3)n2)cc(OC)c1OC [compound 190] |
| 1.86* | Oc1ccc(Nc2ncc(Cl)c(NC3CC3)n2)cc1C1CCCC1 [compound 187] |
| 1.47* | CN1C(=O)COc2cc(Nc3ncc(Cl)c(NC4CC4)n3)ccc21 [compound 179] |
| 1.9* | COC(=O)c1cccc(Nc2ncc(Cl)c(NC3CC3)n2)c1 [compound 196] |

Continued, compound first:

| SMILES | logP |
| --- | --- |
| O=C1NC(=O)C(c2ccc(Nc3ncc(Cl)c(NC4CC4)n3)cc2)N1 (stereo not shown) [compound 176] | 0.61* |
| CC(=O)c1cccc(Nc2ncc(C(F)(F)F)c(NCC3CC3)n2)c1 [compound 211] | 2.77* |
| Brc1cnc(Nc2ccccc2)nc1NCC1CC1 [compound 189] | 1.93* |

Same assay, conditions: HPLC reversed-phase C 18, EEC Directive 79/831 Annex V.A8; method **: 43° C., 0.1% aqueous phosphoric acid and acetonitrile, linear gradient 10% to 95% acetonitrile

| SMILES | logP |
| --- | --- |
| O=C1OCCN1c1cccc(Nc2ncc(C(F)(F)F)c(NC3CC3)n2)c1 [compound 834] | 2.18** |

Same assay, conditions: HPLC reversed-phase C 18, EEC Directive 79/831 Annex V.A8; method *: 40° C., 0.1% aqueous formic acid and acetonitrile, linear gradient 10% to 95% acetonitrile

| logP | SMILES |
| --- | --- |
| 1.47* | CC(C)(O)c1cccc(Nc2ncc(Cl)c(NC3CC3)n2)c1 [compound 784] |
| 1.49* | CC(O)C(=O)Nc1cccc(Nc2ncc(Cl)c(NC3CC3)n2)c1 (stereo not shown) [compound 856] |

The next lines start with the compound.

| SMILES | logP |
| --- | --- |
| CC(=O)Cc1cccc(Nc2ncc(C(F)(F)F)c(NC3CC3)n2)c1 [compound 783] | 2.42* |
| O=C1OCCN1c1cccc(Nc2ncc(Cl)c(NCC3CC3)n2)c1 [compound 861] | 1.63* |
| Clc1cnc(Nc2ccccc2)nc1NCC1CC1(Cl)Cl (stereo not shown) [compound 800] | 2.46* |
| O=C1OCCN1c1cccc(Nc2ncc(C(F)(F)F)c(NC3CC3)n2)c1 [compound 834] | 2.18*; |
| O=C1OCCN1c1cccc(Nc2ncc(Br)c(NCC3CC3)n2)c1 [compound 862] | 1.68* |
| Brc1cnc(Nc2ccccc2)nc1NC1CC1 [compound 836] | 2.56* |

Same assay, conditions: method **: HPLC reversed-phase C 18, 43° C., 0.1% aqueous phosphoric acid and acetonitrile, linear gradient 10% to 95% acetonitrile

| logP | SMILES |
| --- | --- |
| 1.75** | CS(=O)(=O)c1ccc(Nc2ncc(Cl)c(NC3CC3)n2)cc1 [Example 50] |
| 2.09** | COc1cc(Nc2ncc(Cl)c(NCC3CC3)n2)cc(OC)c1 [compound 11] |

Second part, the compound before the results:

| SMILES | logP |
| --- | --- |
| CNS(=O)(=O)c1ccc(Nc2ncc(Cl)c(NCC3CC3)n2)cc1 [compound 20] | 1.87** |
| CCOC1(Nc2nc(Nc3ccccc3)ncc2Cl)CC1 [compound 39] | 2.23** |
| CC(C)c1ccc(Nc2ncc(Cl)c(NCC3CC3)n2)cc1 [Example 54] | 2.62** |

Same assay, conditions: method **: HPLC reversed-phase C 18, temperature 43° C.; mobile phase 0.1% aqueous phosphoric acid and acetonitrile; linear gradient 10% to 95% acetonitrile

| SMILES | logP |
| --- | --- |
| COC(=O)Nc1cccc(Nc2ncc(C(F)(F)F)c(NC3CC3)n2)c1 [compound 660] | 2.06** |
| O=C1CCCN1c1cc(F)cc(Nc2ncc(Cl)c(NC3CC3)n2)c1 [compound 625] | 1.83** |

Same assay, conditions: method **: HPLC, reversed-phase C 18, 43° C., mobile phase 0.1% aqueous phosphoric acid and acetonitrile, linear gradient from 10% to 95% acetonitrile

| SMILES | logP |
| --- | --- |
| CC(=O)NS(=O)(=O)c1ccc(Nc2ncc(Cl)c(NC3CC3)n2)cc1 [compound 1021] | 1.54** |
| Clc1cnc(Nc2ccccc2)nc1NC1CC1c1ccccc1 (stereo not shown) [compound 1014] | 2.77** |
| FS(F)(F)(F)(F)c1cccc(Nc2ncc(Cl)c(NC3CC3)n2)c1 [compound 1052] | 3.7** |

Same assay, conditions: method *: HPLC reversed-phase C18, 40° C., 0.1% aqueous formic acid and acetonitrile, linear gradient 10% to 95% acetonitrile

| logP | SMILES |
| --- | --- |
| 2.15* | CC(C)(C)OC(=O)NCc1ccc(Nc2ncc(Cl)c(NC3CC3)n2)cc1 [compound 90] |
| 1.73* | COc1cc(Nc2ncc(Cl)c(NC3CC3)n2)cc(OC)c1OC [Example 4] |
| 1.8* | COC(=S)Nc1ccc(Nc2ncc(Cl)c(NC3CC3)n2)cc1 [compound 365] |
| 2.84* | FC(F)(F)Oc1ccc(Nc2ncc(Cl)c(NC3CC3)n2)cc1 [compound 375] |

Continued, compound first:

| SMILES | logP |
| --- | --- |
| CC(=O)Nc1ccc(Nc2ncc(Br)c(NC3CC3)n2)cc1Cl [compound 379] | 1.64* |
| CCCCSc1cccc(Nc2ncc(Cl)c(NC3CC3)n2)c1.Cc1ccc(S(=O)(=O)O)cc1 [compound 443] | 3.79* |
| O=S(=O)(Cc1ccc(Nc2ncc(Cl)c(NC3CC3)n2)cc1)Nc1ccccc1 [compound 369] | 2.18* |
| CNC(=O)c1ccc(Nc2ncc(Br)c(NCC3CC3)n2)cc1 [compound 424] | 1.58* |
| CC(C)(C)C(=O)Cc1ccc(Nc2ncc(Br)c(NCC3CC3)n2)cc1 [compound 455] | 2.48* |
| O=S(=O)(Cc1cccc(Nc2ncc(Cl)c(NC3CC3)n2)c1)Nc1ccccc1 [compound 370] | 2.15* |

Same assay, conditions: method *: HPLC reversed-phase C 18, temperature 40° C.; mobile phase 0.1% aqueous formic acid and acetonitrile; linear gradient 10% to 95% acetonitrile

| SMILES | logP |
| --- | --- |
| Fc1cnc(Nc2cccc(OC(F)(F)F)c2)nc1NC1CC1 [compound 576] | 2.33* |
| COC(=O)Nc1cccc(Nc2ncc(C(F)(F)F)c(NC3CC3)n2)c1 [compound 660] | 2.16*; |
| COC(=O)Nc1ccc(Nc2ncc(F)c(NC3CC3)n2)cc1 [compound 594] | 1.28* |
| COc1cc(Nc2ncc(Br)c(NC3CC3)n2)ccc1F [compound 568] | 2.05* |
| CNC(=O)Oc1cccc(Nc2ncc(C#N)c(NC3CC3)n2)c1 [compound 611] | 1.92* |
| CC(=O)N(C)c1ccc(Nc2ncc(F)c(NC3CC3)n2)cc1 [compound 582] | 1.23* |
| CS(=O)(=O)Cc1cccc(Nc2ncc(Cl)c(NCC3CC3)n2)c1 [compound 566] | 1.38* |

Same assay, conditions: method *: HPLC, reversed-phase C 18, 40° C., mobile phase 0.1% aqueous formic acid and acetonitrile, linear gradient from 10% to 95% acetonitrile

| logP | SMILES |
| --- | --- |
| 1.46* | COCCN(C)C(=O)c1cccc(Nc2ncc(Cl)c(NC3CC3)n2)c1 [compound 1064] |
| 2.42* | CC(C)Oc1ccc(Nc2ncc(Cl)c(NC3CC3)n2)cc1OC(C)C [compound 992] |
| 1.25* | OCc1cc(Nc2ncc(Cl)c(NC3CC3)n2)ccc1F [compound 1047] |

More lines, now with the values behind:

| SMILES | logP |
| --- | --- |
| COCC1CCCN1C(=O)c1cccc(Nc2ncc(Cl)c(NC3CC3)n2)c1 (stereo not shown) [compound 1061] | 1.77* |
| Clc1cnc(Nc2ccc(Sc3ccccc3)cc2)nc1NC1CC1 [compound 1013] | 3.69* |

Same assay, conditions: pH 2.3; read-out: logP (pH2.3)

| SMILES | chromatographic logP |
| --- | --- |
| Fc1cnc(Cl)nc1NC1CC1 [2-chloro-N-cyclopropyl-5-fluoropyrimidine-4-amine] | 1.42 |
| FC(F)(F)c1cnc(Cl)nc1NCC1CC1 [2-chloro-N-(cyclopropylmethyl)-5-trifluoromethylpyrimidine-4-amine] | 3.4 |
| O=C(O)c1ccc(Nc2ncc(Cl)c(NC3CC3)n2)cc1 [4-{[5-chloro-4-(cyclopropylamino)pyrimidin-2-yl]amino}benzoic acid] | 1.55 |
